Data from ChEMBL document CHEMBL1201862, “PubChem BioAssay data set” (2004).
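Cells were grown in 96-well plates and exposed to each compound for 48 hours at five concentrations; endpoints were interpolated linearly between bracketing concentrations, or set to the highest concentration if not reached. GI50: concentration for 50% inhibition of growth.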 The source made the active and inactive calls. Rule as the data show it: active = GI50 up to about 1.1 µM and inactive = higher.

Key:
Assay in all cases: NCI tumour cell line growth inhibition, 48 h
786-0 = system: 786-0
A498 = system: A498
A549 = system: A549
ACHN = system: ACHN
BT-549 = system: BT-549
CAKI-1 = system: CAKI-1
CCRF-CEM = system: CCRF-CEM
COLO 205 = system: COLO 205
DU-145 = system: DU-145
EKVX = system: EKVX
HCT-116 = system: HCT-116
HCT-15 = system: HCT-15
HL-60 = system: HL-60
HOP-62 = system: HOP-62
HOP-92 = system: HOP-92
HT-29 = system: HT-29
Hs-578T = system: Hs-578T
IGROV-1 = system: IGROV-1
K562 = system: K562
KM12 = system: KM12
LOX IMVI = system: LOX IMVI
M14 = system: M14
MCF7 = system: MCF7
MDA-MB-231 = system: MDA-MB-231
MDA-MB-435 = system: MDA-MB-435
MDA-N = system: MDA-N
Malme-3M = system: Malme-3M
NCI-H226 = system: NCI-H226
NCI-H23 = system: NCI-H23
NCI-H460 = system: NCI-H460
NCI-H522 = system: NCI-H522
NCI/ADR-RES = system: NCI/ADR-RES
OVCAR-3 = system: OVCAR-3
OVCAR-4 = system: OVCAR-4
OVCAR-5 = system: OVCAR-5
OVCAR-8 = system: OVCAR-8
PC-3 = system: PC-3
RPMI-8226 = system: RPMI-8226
RXF 393 = system: RXF 393
SF-268 = system: SF-268
SF-295 = system: SF-295
SK-MEL-28 = system: SK-MEL-28
SK-MEL-2 = system: SK-MEL-2
SK-MEL-5 = system: SK-MEL-5
SK-OV-3 = system: SK-OV-3
SN12C = system: SN12C
SNB-19 = system: SNB-19
SNB-75 = system: SNB-75
SR = system: SR
SW-620 = system: SW-620
T47D = system: T47D
TK-10 = system: TK-10
U-251 = system: U-251
UACC-62 = system: UACC-62
UO-31 = system: UO-31
HCC 2998 = system: HCC 2998
MOLT-4 = system: MOLT-4
SF-539 = system: SF-539
UACC-257 = system: UACC-257

Measured: GI50

CC(O)(CNS(=O)(=O)c1ccccc1)c1ccccc1 (stereo not drawn)
> 100 µM: HCT-15
inactive: 786-0 > 100 µM | A498 > 100 µM | A549 > 100 µM | ACHN > 100 µM | BT-549 > 100 µM | CAKI-1 > 100 µM | CCRF-CEM > 100 µM | COLO 205 > 100 µM | DU-145 > 100 µM | EKVX > 100 µM | HCT-116 > 100 µM | HL-60 > 100 µM | HOP-62 > 100 µM | HOP-92 > 100 µM | HT-29 > 100 µM | Hs-578T > 100 µM | IGROV-1 > 100 µM | K562 > 100 µM | KM12 > 100 µM | LOX IMVI > 100 µM | M14 > 100 µM | MCF7 > 100 µM | MDA-MB-231 > 100 µM | MDA-MB-435 > 100 µM | MDA-N > 100 µM | Malme-3M > 100 µM | NCI-H226 > 100 µM | NCI-H23 > 100 µM | NCI-H460 > 100 µM | NCI-H522 > 100 µM | NCI/ADR-RES > 100 µM | OVCAR-3 > 100 µM | OVCAR-4 > 100 µM | OVCAR-5 > 100 µM | OVCAR-8 > 100 µM | PC-3 > 100 µM | RPMI-8226 > 100 µM | RXF 393 > 100 µM | SF-268 > 100 µM | SF-295 > 100 µM | SK-MEL-28 > 100 µM | SK-MEL-2 > 100 µM | SK-MEL-5 > 100 µM | SK-OV-3 > 100 µM | SN12C > 100 µM | SNB-19 > 100 µM | SNB-75 > 100 µM | SR > 100 µM | SW-620 > 100 µM | T47D > 100 µM | TK-10 > 100 µM | U-251 > 100 µM | UACC-62 > 100 µM | UO-31 > 100 µM

O=C(c1ccco1)N(Cc1ccco1)C(=S)Nc1ccccc1
9.2 µM: HCT-15
inactive: 786-0 6.3 µM | A549 29.7 µM | ACHN 19.5 µM | BT-549 17.2 µM | CAKI-1 7.08 µM | CCRF-CEM 3.79 µM | COLO 205 12.9 µM | DU-145 33.2 µM | EKVX 45.9 µM | HCC 2998 33.1 µM | HCT-116 6.37 µM | HL-60 1.79 µM | HOP-62 36.6 µM | HOP-92 7.53 µM | HT-29 8.71 µM | Hs-578T 19.3 µM | IGROV-1 16.1 µM | K562 3.33 µM | KM12 8.2 µM | LOX IMVI 7.21 µM | M14 12 µM | MCF7 4.2 µM | MDA-MB-231 13.3 µM | MDA-MB-435 10.6 µM | MDA-N 10.5 µM | MOLT-4 7.08 µM | Malme-3M 14.7 µM | NCI-H226 66.8 µM | NCI-H23 13.5 µM | NCI-H460 49.1 µM | NCI-H522 16.9 µM | NCI/ADR-RES 21.9 µM | OVCAR-3 15.7 µM | OVCAR-4 25.6 µM | OVCAR-5 36.5 µM | OVCAR-8 19 µM | PC-3 30.5 µM | RPMI-8226 3.1 µM | RXF 393 16 µM | SF-268 20.2 µM | SF-295 32.2 µM | SF-539 6.46 µM | SK-MEL-28 15 µM | SK-MEL-2 18.8 µM | SK-MEL-5 17.5 µM | SK-OV-3 > 100 µM | SN12C 14.5 µM | SNB-19 46.9 µM | SNB-75 18.5 µM | SR 3.1 µM | SW-620 12.4 µM | T47D 14.1 µM | TK-10 18.8 µM | U-251 28.3 µM | UACC-257 15.7 µM | UACC-62 14.1 µM | UO-31 16.5 µM
